Source: patent EP4745153A1, “GLP-1, GIP AND GCG RECEPTOR […] USE THEREOF” (Jiangsu Hengrui Pharmaceuticals Co., Ltd., priority 2023, dated 2025)
Like-named read-outs stand apart in the source and are kept apart here. Starred links: 1 amine or outer side, 2 acyl side, 3 side chain; linkers in the order of their positions; H or OH if unused. Non-standard residues stand in square brackets, D forms with d. Residues, ends and D or L forms follow the SMILES beside them. Groups on a side chain read outwards from the residue. *: point of attachment. C20 diacid = O=C(O)CCCCCCCCCCCCCCCCCCC(=O)*; γGlu = O=C(O)[C@H](CCC(=O)[*:2])N[*:1]; αMeK = C[C@](N)(CCCCN)C(=O)O; AEEA = NCCOCCOCC(=O)O; Aib = CC(C)(N)C(=O)O

Tests used:
human GLP-1R = target: T1, human GLP-1R (Homo sapiens, UniProt P43220); assay: cAMP HTRF agonist activity assay in CHO-K1 cells expressing GLP-1R; type: cell-based; as to Activity against human GLP-1R (EC50 nM): 5% FBS, 0.1% Casein
T1 construct: expressed in transfected cells; host or cells: CHO-K1 clonal cell line
T1 sequence (P43220 24-463): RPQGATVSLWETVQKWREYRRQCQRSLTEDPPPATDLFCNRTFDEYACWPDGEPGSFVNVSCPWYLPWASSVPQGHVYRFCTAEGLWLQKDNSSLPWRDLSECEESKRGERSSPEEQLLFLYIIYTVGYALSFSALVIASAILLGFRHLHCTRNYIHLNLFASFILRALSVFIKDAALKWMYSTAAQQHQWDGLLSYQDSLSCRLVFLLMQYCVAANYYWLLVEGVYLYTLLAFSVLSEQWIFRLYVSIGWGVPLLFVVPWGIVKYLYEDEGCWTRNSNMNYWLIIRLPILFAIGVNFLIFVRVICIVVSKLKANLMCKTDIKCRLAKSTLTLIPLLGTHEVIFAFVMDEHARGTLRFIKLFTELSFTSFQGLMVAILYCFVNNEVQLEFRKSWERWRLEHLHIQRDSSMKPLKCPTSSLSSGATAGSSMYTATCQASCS
Protocol: Functional activity was determined in CHO-K1 clonal cell lines expressing GIPR, GLP-1R, and GCGR. […] Each recipient cell (5000 cells/well) was added to an SV 96-well plate (Cisbio, 66PL96025) and incubated with the prepared polypeptide at 37°Cfor 30 min. The resulting increase in intracellular cAMP was quantitatively measured using the cAMP-GS dynamic HTRF assay kit (Cisbio, 62AM4PEJ). Briefly, the intracellular cAMP levels were determined by adding cAMP-d2 conjugate in cell lysis buffer, followed by the antibody anti-cAMP-Eu cryptate (also in cell lysis buffer).
Using the maximum response percentage vs. the added polypeptide concentration, the relative EC50 values were derived through nonlinear regression analysis and fitted to a four-parameter logarithmic equation. For specific data, refer to Tables 7-1 to 7-8 below. […]

[1] = Pharmacokinetics in mice after single intravenous injection; design: species or system C57 mice; details: male, C57, mouse, in vivo, iv
Protocol: Male C57 mice were used as test animals. The target compound was administered via a single intravenous injection, and the pharmacokinetic characteristics of the compound in C57 mice in vivo (plasma) were determined.
Male C57 mice, weighing approximately 25g, aged 4-6 weeks. After preparing the polypeptide compound solution using 1×PBS dissolving solution, the compound was administered intravenously at a dose of 200 nmol/kg, where each compound was administered to 3 animals. Blood samples of 60 µL were collected at 5 min, 15 min, 0.5 h, 1 h, 2 h, 4 h, 6 h, 24 h, 48 h and 72 h after the infusion was completed and transferred to centrifuge tubes containing EDTA-K2 anticoagulant. Whole blood samples were centrifuged at 4000 g for 5 min at 4°C. Plasma was separated and plasma samples were frozen and stored at -80 °C.
Sample pretreatment method: 30 µL of plasma samples was taken, and 120 µL of 0.1% formic acid in methanol containing 1 ng/mL internal standard verapamil was added. The mixture was vortexed for 5 min, and centrifuged at 10000 rpm for 10 min at low temperature. 70 µL of supernatant was taken, and 70 µL of water was added and mixed well. Analysis was performed by LC-MS instrument.
LC-MS analysis method: (1) chromatographic conditions: mobile phases A and B: 0.1% formic acid in water and 0.1% formic acid in acetonitrile, respectively; gradient elution mode; flow rate: 0.5 mL/min; injection volume: 10 µL; chromatographic column: nanomicro Unisil C18aq (4.6 mm × 150 mm, 5 µm); column temperature: 40°C. (2) Mass spectrometry conditions: For mass spectrometry, an electrospray ionization source (ESI), positive ion analysis mode, and multiple reaction monitoring (MRM) scanning mode were used.
For data processing, SCIEX OS (Version 2.1.6) software was used to quantify blood drug concentration data and PKSolver (Version 2.0) software was used to calculate pharmacokinetic parameters.

[2] = read-out: Activity against human GLP-1R (EC50 nM)

Structure (SMILES) | EC50 (human GLP-1R; [2]) | EC50 (human GLP-1R) | also measured
CC[C@H](C)[C@H](NC(=O)[C@H](CO)NC(=O)[C@H](Cc1ccc(O)cc1)NC(=O)[C@H](CC(=O)O)NC(=O)[C@H](CO)NC(=O)[C@@H](NC(=O)[C@H](Cc1ccccc1)NC(=O)[C@@H](NC(=O)CNC(=O)[C@H](CCC(N)=O)NC(=O)C(C)(C)NC(=O)[C@@H](N)Cc1c[nH]cn1)[C@@H](C)O)[C@@H](C)O)C(=O)N[C@@H](CC(C)C)C(=O)N[C@@H](CC(C)C)C(=O)N[C@@H](CCC(=O)O)C(=O)N[C@@H](CCCCNC(=O)COCCOCCNC(=O)COCCOCCNC(=O)CC[C@H](NC(=O)CCCCCCCCCCCCCCCCCCC(=O)O)C(=O)O)C(=O)N[C@@H](CCCCN)C(=O)N[C@@H](C)C(=O)N[C@@H](C)C(=O)N[C@@H](CCC(N)=O)C(=O)N[C@@H](CCC(=O)O)C(=O)N[C@@H](Cc1ccccc1)C(=O)N[C@H](C(=O)N[C@@H](CCC(=O)O)C(=O)N[C@@H](Cc1c[nH]c2ccccc12)C(=O)N[C@@H](CC(C)C)C(=O)N[C@@H](CC(C)C)C(=O)N[C@@H](C)C(=O)NCC(=O)NCC(=O)N1CCC[C@H]1C(=O)N[C@@H](CO)C(=O)N[C@@H](CO)C(=O)NCC(=O)N[C@@H](C)C(=O)N1CCC[C@H]1C(=O)N1CCC[C@H]1C(=O)N1CCC[C@H]1C(=O)N[C@@H](CO)C(N)=O)C(C)C [Compound 0154] (H-H[Aib]QGTFTSDYSILLEK([AEEA-AEEA-γGlu-C20 diacid])KAAQEFVEWLLAGGPSSGAPPPS-NH2) | 0.033 nM |  | 
CC(C)C[C@H](NC(=O)[C@H](CC(C)C)NC(=O)[C@H](Cc1c[nH]c2ccccc12)NC(=O)[C@H](CCC(=O)O)NC(=O)[C@@H](NC(=O)[C@H](Cc1ccccc1)NC(=O)[C@H](CCC(=O)O)NC(=O)[C@H](CCC(N)=O)NC(=O)[C@H](C)NC(=O)[C@H](C)NC(=O)[C@H](CCCCN)NC(=O)[C@H](CCCCNC(=O)COCCOCCNC(=O)COCCOCCNC(=O)CC[C@H](NC(=O)CCCCCCCCCCCCCCCCCCC(=O)O)C(=O)O)NC(=O)[C@H](CCC(=O)O)NC(=O)[C@H](CC(C)C)NC(=O)C(C)(C)NC(=O)[C@H](CCCCN)NC(=O)[C@H](CO)NC(=O)[C@H](Cc1ccc(O)cc1)NC(=O)[C@H](CC(=O)O)NC(=O)[C@H](CO)NC(=O)[C@@H](NC(=O)[C@H](Cc1ccccc1)NC(=O)[C@@H](NC(=O)CNC(=O)[C@H](Cc1c[nH]cn1)NC(=O)C(C)(C)NC(=O)[C@@H](N)Cc1c[nH]cn1)[C@@H](C)O)[C@@H](C)O)C(C)C)C(=O)N[C@@H](C)C(=O)NCC(=O)NCC(=O)N1CCC[C@H]1C(=O)N[C@@H](CO)C(=O)N[C@@H](CO)C(=O)NCC(=O)N[C@@H](C)C(=O)N1CCC[C@H]1C(=O)N1CCC[C@H]1C(=O)N1CCC[C@H]1C(=O)N[C@@H](CO)C(N)=O [Compound 0107] | 0.016 nM |  | 
CC[C@H](C)[C@H](NC(=O)[C@H](CO)NC(=O)[C@H](CC(C)C)NC(=O)[C@H](CC(=O)O)NC(=O)[C@H](CO)NC(=O)[C@@H](NC(=O)[C@H](Cc1ccccc1)NC(=O)[C@@H](NC(=O)CNC(=O)[C@H](Cc1c[nH]cn1)NC(=O)C(C)(C)NC(=O)[C@@H](N)Cc1c[nH]cn1)[C@@H](C)O)[C@@H](C)O)C(=O)N[C@@H](CC(C)C)C(=O)N[C@@H](CC(C)C)C(=O)N[C@@H](CCC(=O)O)C(=O)N[C@@H](CCCCNC(=O)COCCOCCNC(=O)COCCOCCNC(=O)CC[C@H](NC(=O)CCCCCCCCCCCCCCCCCCC(=O)O)C(=O)O)C(=O)N[C@@H](CCCCN)C(=O)N[C@@H](C)C(=O)N[C@@H](C)C(=O)N[C@@H](CCC(N)=O)C(=O)N[C@@H](CCC(=O)O)C(=O)N[C@@H](Cc1ccccc1)C(=O)N[C@H](C(=O)N[C@@H](CCC(=O)O)C(=O)N[C@@H](Cc1c[nH]c2ccccc12)C(=O)N[C@@H](CC(C)C)C(=O)N[C@@H](CC(C)C)C(=O)N[C@@H](C)C(=O)N[C@H](CCC(=O)O)C(=O)NCC(=O)N1CCC[C@H]1C(=O)N[C@@H](CO)C(=O)N[C@@H](CO)C(=O)NCC(=O)N[C@@H](C)C(=O)N1CCC[C@H]1C(=O)N1CCC[C@H]1C(=O)N1CCC[C@H]1C(=O)N[C@@H](CO)C(N)=O)C(C)C [Compound 0144] | 0.035 nM |  | clearance [1]: 0.114 mL/min/kg; half-life [1]: 9.7 h
CC(C)C[C@H](NC(=O)[C@H](CC(C)C)NC(=O)[C@H](Cc1c[nH]c2ccccc12)NC(=O)[C@H](CCC(=O)O)NC(=O)[C@@H](NC(=O)[C@H](Cc1ccccc1)NC(=O)[C@H](CCC(=O)O)NC(=O)[C@H](CCC(N)=O)NC(=O)[C@H](C)NC(=O)C(C)(C)NC(=O)[C@H](CCCCN)NC(=O)[C@H](CCCCNC(=O)COCCOCCNC(=O)COCCOCCNC(=O)CC[C@H](NC(=O)CCCCCCCCCCCCCCCCCCC(=O)O)C(=O)O)NC(=O)[C@H](CCC(=O)O)NC(=O)[C@H](CC(C)C)NC(=O)[C@H](Cc1ccc(O)cc1)NC(=O)[C@H](CCCCN)NC(=O)[C@H](CO)NC(=O)[C@H](Cc1ccc(O)cc1)NC(=O)[C@H](CC(=O)O)NC(=O)[C@H](CO)NC(=O)[C@@H](NC(=O)[C@H](Cc1ccccc1)NC(=O)[C@@H](NC(=O)CNC(=O)[C@H](Cc1c[nH]cn1)NC(=O)C(C)(C)NC(=O)[C@@H](N)Cc1c[nH]cn1)[C@@H](C)O)[C@@H](C)O)C(C)C)C(=O)N[C@@H](C)C(=O)NCC(=O)NCC(=O)N1CCC[C@H]1C(=O)N[C@@H](CO)C(=O)N[C@@H](CO)C(=O)NCC(=O)N[C@@H](C)C(=O)N1CCC[C@H]1C(=O)N1CCC[C@H]1C(=O)N1CCC[C@H]1C(=O)N[C@@H](CO)C(N)=O [Compound 0110] (H-H[Aib]HGTFTSDYSKYLEK([AEEA-AEEA-γGlu-C20 diacid])K[Aib]AQEFVEWLLAGGPSSGAPPPS-NH2) | 0.016 nM |  | 
CC(C)C[C@H](NC(=O)[C@H](CC(C)C)NC(=O)[C@H](Cc1c[nH]c2ccccc12)NC(=O)[C@H](CCC(=O)O)NC(=O)[C@@H](NC(=O)[C@H](Cc1ccccc1)NC(=O)[C@H](CCC(=O)O)NC(=O)[C@H](CCC(N)=O)NC(=O)[C@H](CCC(N)=O)NC(=O)[C@H](C)NC(=O)[C@H](CCCCN)NC(=O)[C@H](CCCCNC(=O)COCCOCCNC(=O)COCCOCCNC(=O)CC[C@H](NC(=O)CCCCCCCCCCCCCCCCCCC(=O)O)C(=O)O)NC(=O)[C@H](CCC(=O)O)NC(=O)[C@H](CC(C)C)NC(=O)[C@H](Cc1ccc(O)cc1)NC(=O)[C@](C)(CCCCN)NC(=O)[C@H](CO)NC(=O)[C@H](Cc1ccc(O)cc1)NC(=O)[C@H](CC(=O)O)NC(=O)[C@H](CO)NC(=O)[C@@H](NC(=O)[C@H](Cc1ccccc1)NC(=O)[C@@H](NC(=O)CNC(=O)[C@H](Cc1c[nH]cn1)NC(=O)C(C)(C)NC(=O)[C@@H](N)Cc1c[nH]cn1)[C@@H](C)O)[C@@H](C)O)C(C)C)C(=O)N[C@@H](C)C(=O)NCC(=O)NCC(=O)N1CCC[C@H]1C(=O)N[C@@H](CO)C(=O)N[C@@H](CO)C(=O)NCC(=O)N[C@@H](C)C(=O)N1CCC[C@H]1C(=O)N1CCC[C@H]1C(=O)N1CCC[C@H]1C(=O)N[C@@H](CO)C(N)=O [Compound 0113] (H-H[Aib]HGTFTSDYS[αMeK]YLEK([AEEA-AEEA-γGlu-C20 diacid])KAQQEFVEWLLAGGPSSGAPPPS-NH2) |  | 0.032 nM | 
CC[C@H](C)[C@H](NC(=O)[C@H](CC(C)C)NC(=O)[C@H](Cc1c[nH]c2ccccc12)NC(=O)[C@H](CCC(=O)O)NC(=O)[C@@H](NC(=O)[C@H](Cc1ccccc1)NC(=O)[C@H](CCC(=O)O)NC(=O)[C@H](CCC(N)=O)NC(=O)[C@H](C)NC(=O)[C@H](C)NC(=O)[C@H](CCCCN)NC(=O)[C@H](CCCCNC(=O)COCCOCCNC(=O)COCCOCCNC(=O)CC[C@H](NC(=O)CCCCCCCCCCCCCCCCCCC(=O)O)C(=O)O)NC(=O)[C@H](CCC(=O)O)NC(=O)[C@H](CC(C)C)NC(=O)[C@H](Cc1ccc(O)cc1)NC(=O)[C@](C)(CCCCN)NC(=O)[C@H](CO)NC(=O)[C@H](Cc1ccc(O)cc1)NC(=O)[C@H](CC(=O)O)NC(=O)[C@H](CO)NC(=O)[C@@H](NC(=O)[C@H](Cc1ccccc1)NC(=O)[C@@H](NC(=O)CNC(=O)[C@H](Cc1c[nH]cn1)NC(=O)C(C)(C)NC(=O)[C@@H](N)Cc1c[nH]cn1)[C@@H](C)O)[C@@H](C)O)C(C)C)C(=O)N[C@@H](CCC(=O)O)C(=O)NCC(=O)NCC(=O)N1CCC[C@H]1C(=O)N[C@@H](CO)C(=O)N[C@@H](CO)C(=O)NCC(=O)N[C@@H](C)C(=O)N1CCC[C@H]1C(=O)N1CCC[C@H]1C(=O)N1CCC[C@H]1C(=O)N[C@@H](CO)C(N)=O [Compound 0115] (H-H[Aib]HGTFTSDYS[αMeK]YLEK([AEEA-AEEA-γGlu-C20 diacid])KAAQEFVEWLIEGGPSSGAPPPS-NH2) |  | 0.023 nM | 
